Source: publication PMC9516332 (Frontiers in Oncology, 2022)
Where two headings read alike, the source gives them in different places.

Tests used:
[1] = tested on: 134 cancer cell lines; test: Cell viability assay (ATPlite, 72 hours), IC50 on cancer cell line panel
[2] = target: panel of 255 wild-type kinases (Homo sapiens, UniProt P45983); test: Kinase panel profiling at 1 µmol/L (MSA or IMAP), percentage inhibition; assay type: biochemical; settings: kinase JNK1; 1 µmol/L single concentration; read-out: %-inhibition at 1 µmol/L, JNK1
[3] = target: T1, panel of 255 wild-type kinases (Homo sapiens, UniProt Q8IW41); test: as above; assay type: biochemical; settings: MAPKAPK5; 1 µmol/L single concentration; read-out: %-inhibition, MAPKAPK5
T1 sequence (Q8IW41 1-473): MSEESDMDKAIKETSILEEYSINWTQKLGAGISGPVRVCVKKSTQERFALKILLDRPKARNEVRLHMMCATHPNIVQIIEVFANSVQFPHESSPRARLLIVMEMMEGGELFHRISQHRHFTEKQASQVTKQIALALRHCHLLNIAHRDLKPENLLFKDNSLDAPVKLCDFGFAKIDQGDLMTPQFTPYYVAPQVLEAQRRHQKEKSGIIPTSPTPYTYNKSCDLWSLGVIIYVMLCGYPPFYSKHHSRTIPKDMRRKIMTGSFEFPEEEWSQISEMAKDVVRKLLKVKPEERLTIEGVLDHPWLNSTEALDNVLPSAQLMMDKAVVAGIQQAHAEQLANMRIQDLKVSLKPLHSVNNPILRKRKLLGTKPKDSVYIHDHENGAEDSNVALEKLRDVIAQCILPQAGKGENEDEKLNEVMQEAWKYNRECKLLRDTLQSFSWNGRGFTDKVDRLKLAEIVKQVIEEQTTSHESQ

SMILES: FC(F)(F)c1ccc(CNc2ccc(Cc3c[nH]c4ncc(Cl)cc34)cn2)cn1 [pexidartinib]
- IC50 ([1]; Homo sapiens, MV4-11, read-out: IC50 in cell proliferation assay, MV4-11 cell line (FLT3 ITD)): 0.254 µM
- IC50 ([1]; Homo sapiens, MeWo, read-out: IC50 in cell proliferation assay, MeWo cell line): > 31.6 µM
- IC50 ([1]; Homo sapiens, NCCIT, read-out: IC50 in cell proliferation assay, NCC-IT cell line): > 31.6 µM
- IC50 ([1]; Homo sapiens, NCI-H82, read-out: IC50 in cell proliferation assay, cell line NCI-H82): > 31.6 µM
- IC50 ([1]; Homo sapiens, NCI-H460, read-out: IC50 in cell proliferation assay, NCI-H460 cell line): 3.33 µM
- IC50 ([1]; Homo sapiens, NCI-H661, read-out: IC50 in cell proliferation assay, NCI-H661 cell line): > 31.6 µM
- IC50 ([1]; Homo sapiens, NCI-H716, read-out: IC50 in cell proliferation assay, cell line NCI-H716 (FGFR2-COL14A1)): 17 µM
- IC50 ([1]; Homo sapiens, NCI-H1650, read-out: IC50 in cell proliferation assay, NCI-H1650 cell line (EGFR exon19del)): > 31.6 µM
- IC50 ([1]; Homo sapiens, NCI-H1975, read-out: IC50 in cell proliferation assay, NCI-H1975 cell line (EGFR p.L858R + p.T790M)): > 31.6 µM
- IC50 ([1]; Homo sapiens, NCI-H2228, read-out: IC50 in cell proliferation assay, NCI-H2228 cell line (EML4-ALK)): > 31.6 µM
- IC50 ([1]; Homo sapiens, OVCAR-3, read-out: IC50 in cell proliferation assay, cell line OVCAR-3): > 31.6 µM
- IC50 ([1]; Homo sapiens, PFSK-1, read-out: IC50 in cell proliferation assay, cell line PFSK-1): > 31.6 µM
- IC50 ([1]; Homo sapiens, RL95-2, read-out: IC50 in cell proliferation assay, cell line RL95-2 (EGFR p.A289V)): > 31.6 µM
- IC50 ([1]; Homo sapiens, RPMI-7951, read-out: IC50 in cell proliferation assay, cell line RPMI-7951 (BRAF p.V600E)): 26.5 µM
- IC50 ([1]; Homo sapiens, RS4-11, read-out: IC50 in cell proliferation assay, cell line RS4;11): > 31.6 µM
- IC50 ([1]; Homo sapiens, Rec1, read-out: IC50 in cell proliferation assay, cell line REC-1): 16 µM
- IC50 ([1]; Homo sapiens, SHP77, read-out: IC50 in cell proliferation assay, cell line SHP-77): > 31.6 µM
- IC50 ([1]; Homo sapiens, SK-BR-3, read-out: IC50 in cell proliferation assay, cell line SK-BR-3 (ERBB2 amplification)): > 31.6 µM
- IC50 ([1]; Homo sapiens, SK-N-AS, read-out: IC50 in cell proliferation assay, cell line SK-N-AS): > 31.6 µM
- IC50 ([1]; Homo sapiens, SK-N-FI, read-out: IC50 in cell proliferation assay, cell line SK-N-FI): > 31.6 µM
- IC50 ([1]; Homo sapiens, SK-N-MC, read-out: IC50 in cell proliferation assay, cell line SK-N-MC): > 31.6 µM
- IC50 ([1]; Homo sapiens, SK-N-SH, read-out: IC50 in cell proliferation assay, cell line SK-N-SH (ALK p.F1174L)): > 31.6 µM
- IC50 ([1]; Homo sapiens, SNU-5, read-out: IC50 in cell proliferation assay, cell line SNU-5 (MET amplification)): > 31.6 µM
- IC50 ([1]; Homo sapiens, SNU-16, read-out: IC50 in cell proliferation assay, cell line SNU-16 (FGFR2 amplification)): 8.76 µM
- IC50 ([1]; Homo sapiens, SNU-C2B, read-out: IC50 in cell proliferation assay, cell line SNU-C2B (EGFR p.R165Q)): > 31.6 µM
- IC50 ([1]; Homo sapiens, SU-DHL-1, read-out: IC50 in cell proliferation assay, cell line SU-DHL-1 (NPM1-ALK)): > 31.6 µM
- IC50 ([1]; Homo sapiens, SU-DHL-6, read-out: IC50 in cell proliferation assay, cell line SU-DHL-6): > 31.6 µM
- IC50 ([1]; Homo sapiens, SUP-T1, read-out: IC50 in cell proliferation assay, cell line SUP-T1): > 31.6 µM
- IC50 ([1]; Homo sapiens, SW48, read-out: IC50 in cell proliferation assay, cell line SW48 (EGFR p.G719S)): > 31.6 µM
- IC50 ([1]; Homo sapiens, SW480, read-out: IC50 in cell proliferation assay, cell line SW480): > 31.6 µM
- IC50 ([1]; Homo sapiens, SW626, read-out: IC50 in cell proliferation assay, cell line SW626): > 31.6 µM
- IC50 ([1]; Homo sapiens, SW780, read-out: IC50 in cell proliferation assay, cell line SW780 (FGFR3-BAIAP2L1)): 5.07 µM
- IC50 ([1]; Homo sapiens, SW837, read-out: IC50 in cell proliferation assay, cell line SW837): > 31.6 µM
- IC50 ([1]; Homo sapiens, SW872, read-out: IC50 in cell proliferation assay, cell line SW872 (BRAF p.V600E)): > 31.6 µM
- IC50 ([1]; Homo sapiens, SW900, read-out: IC50 in cell proliferation assay, cell line SW900): > 31.6 µM
- IC50 ([1]; Homo sapiens, SW948, read-out: IC50 in cell proliferation assay, cell line SW948): 19.9 µM
- IC50 ([1]; Homo sapiens, SW982, read-out: IC50 in cell proliferation assay, cell line SW982 (BRAF p.V600E)): > 31.6 µM
- IC50 ([1]; Homo sapiens, SW-620, read-out: IC50 in cell proliferation assay, cell line SW620): > 31.6 µM
- IC50 ([1]; Homo sapiens, T98G, read-out: IC50 in cell proliferation assay, cell line T98G): > 31.6 µM
- IC50 ([1]; Homo sapiens, TCC-SUP, read-out: IC50 in cell proliferation assay, cell line TCCSUP): > 31.6 µM
- IC50 ([1]; Homo sapiens, THP-1, read-out: IC50 in cell proliferation assay, cell line THP-1): > 31.6 µM
- IC50 ([1]; Homo sapiens, U2OS, read-out: IC50 in cell proliferation assay, cell line U2OS): > 31.6 µM
- IC50 ([1]; Homo sapiens, U-87 MG, read-out: IC50 in cell proliferation assay, cell line U-87MG ATCC): > 31.6 µM
- IC50 ([1]; Homo sapiens, U-118-MG, read-out: IC50 in cell proliferation assay, cell line U-118MG): > 31.6 µM
- IC50 ([1]; Homo sapiens, UMUC3, read-out: IC50 in cell proliferation assay, cell line UM-UC-3): > 31.6 µM
- IC50 ([1]; Hs766T, read-out: IC50 in cell proliferation assay, Hs 766T cell line): > 31.6 µM
- IC50 ([1]; L-82, read-out: IC50 in cell proliferation assay, L-82 cell line (NPM1-ALK)): > 31.6 µM
- IC50 ([1]; Rh30, read-out: IC50 in cell proliferation assay, cell line Rh30): > 31.6 µM
- IC50 ([1]; read-out: IC50 in cell proliferation assay, 11-18 cell line (EGFR p.L858R)): > 31.6 µM
- IC50 ([1]; read-out: IC50 in cell proliferation assay, Hs 852.T cell line): > 31.6 µM
- IC50 ([1]; read-out: IC50 in cell proliferation assay, JAR cell line): > 31.6 µM
- IC50 ([1]; read-out: IC50 in cell proliferation assay, cell line 5637): 18.3 µM
- IC50 ([1]; read-out: IC50 in cell proliferation assay, cell line A-388): > 31.6 µM
- IC50 ([1]; read-out: IC50 in cell proliferation assay, cell line DB): > 31.6 µM
- IC50 ([1]; read-out: IC50 in cell proliferation assay, cell line DEL (NPM1-ALK)): > 31.6 µM
- IC50 ([1]; read-out: IC50 in cell proliferation assay, cell line ES-2 (BRAF p.V600E)): > 31.6 µM
- IC50 ([1]; read-out: IC50 in cell proliferation assay, cell line PA-1): 17.3 µM
- IC50 ([1]; read-out: IC50 in cell proliferation assay, cell line PC-3): > 31.6 µM
- IC50 ([1]; read-out: IC50 in cell proliferation assay, cell line RD): > 31.6 µM
- IC50 ([1]; read-out: IC50 in cell proliferation assay, cell line RKO (BRAF p.V600E)): > 31.6 µM
- IC50 ([1]; read-out: IC50 in cell proliferation assay, cell line RL): > 31.6 µM
- IC50 ([1]; read-out: IC50 in cell proliferation assay, cell line RT-4 (FGFR3-TACC3)): > 31.6 µM
- IC50 ([1]; read-out: IC50 in cell proliferation assay, cell line SR (NPM1-ALK)): 27.3 µM
- IC50 ([1]; read-out: IC50 in cell proliferation assay, cell line T24): > 31.6 µM
- IC50 ([1]; read-out: IC50 in cell proliferation assay, cell line TT (RET p.C634W)): > 31.6 µM
- IC50 ([1]; read-out: IC50 in cell proliferation assay, cell line VA-ES-BJ): > 31.6 µM
- inhibition at 1 µM [2]: -1.87%
- inhibition at 1 µM [3]: 0.469%
